A value given as a limit tells only on which side of the number the result lay.

For 33 compounds, Ki results are on record in patent publication US10807959B2, “WDR5-MLL1 inhibitors and modulators” (Vanderbilt University, priority 2018, dated 2020).

The first assay addresses WDR5 (Homo sapiens (Human), UniProt P61964). Description: TR-FRET binding assay, displacement of 10mer-Thr-FAM probe from His-tagged WDR5.
Conditions: not given
The protocol:
The LanthaScreenTM Elite Tb-anti-HIS Antibody from ThermoFisher Scientific was used for this purpose. […] The ratio of the 520 and 495 signals are then utilized to generate a dose-response curve to calculate an IC50 value. […] WDR[…] tag protein is used at 2 nM.
`O=C(NCc1ccc(Cl)c(Cl)c1)c1cc(CNC2=NCCN2)ccc1F` [Example B36, N-(3,4-dichlorobenzyl)-5-(((4,5-dihydro-1H-imidazol-2-yl)amino)methyl)-2-fluorobenzamide] returned a Ki of 0.917 nM. This counts as sub-nanomolar.
The same measure, in the same setting: as for `Cc1cc(-c2cc(CNC3=NCCN3)cc(C(=O)NCc3cc(Cl)cc(Cl)c3)c2)ccn1` [Example B81], the figure is 0.033 nM; as for `Cc1nc(F)ccc1-c1cc(CNC2=NCCN2)cc(C(=O)NCc2ccc(Cl)c(Cl)c2)c1` [Example B64], 0.0213 nM; as for `Cc1ccncc1-c1cc(CNC2=NCCN2)cc(C(=O)NCc2cc(Cl)cc(Cl)c2)c1` [Example B87], 0.198 nM.

Staying with this assay, now noted: Inhibition of WDR5 by TR-FRET assay.
On to `COc1ncc(Cl)cc1-c1cc(CNC2=NCCN2)cc(C(=O)NCc2ccc(Cl)c(Cl)c2)n1` [Example 86, 5′-Chloro-N-(3,4-dichlorobenzyl)-4-(((4,5-dihydro-1H-imidazol-2-yl)amino)methyl)-2′-methoxy-[2,3′-bipyridine]-6-carboxamide], for which the Ki was < 0.1 nM.
`Cc1ccc(CNC(=O)c2cc(CNC(=N)N)cc(-c3ccnc(C)c3)c2)cn1` [Example 104, 3-(guanidinomethyl)-N-((6-methylpyridin-3-yl)methyl)-5-(2-methylpyridin-4-yl)benzamide] registered a Ki of 12 nM.
On the same count and under the same terms, as for `Cc1cc(-c2cc(CNC3=NCCN3)cc(C(=O)NCc3nccc(C)n3)c2)ccn1` [Example 29, 3-(((4,5-Dihydro-1H-imidazol-2-yl)amino)methyl)-5-(2-methylpyridin-4-yl)-N-((4-methylpyrimidin-2-yl)methyl)benzamide], the figure is 13 nM.
The compound `Cc1cc(-c2cc(CNC(=N)N)cc(C(=O)NCc3cc(F)cc(Cl)c3)c2)ccn1` [Example 100, N-(3-Chloro-5-fluorobenzyl)-3-(guanidinomethyl)-5-(2-methylpyridin-4-yl)benzamide] came in with a Ki of 2.4 nM.
Same read-out and setting: to `Cc1ccnc(C(NC(=O)c2cc(CNC3=NCCN3)cc(-c3ccc(F)nc3C)c2)C2CC2)c1` (stereo not drawn) [Example 9, N-(Cyclopropyl(4-methylpyridin-2-yl)methyl)-3-(((4,5-dihydro-1H-imidazol-2-yl)amino)methyl)-5-(6-fluoro-2-methylpyridin-3-yl)benzamide] belongs < 0.1 nM.
Still for that read-out and setting: to `Cc1cc(-c2cc(CNC(=N)N)cc(C(=O)NCc3ccc(Cl)cn3)c2)ccn1` [Example 103, N-((5-Chloropyridin-2-yl)methyl)-3-(guanidinomethyl)-5-(2-methylpyridin-4-yl)benzamide] belongs 3.3 nM.
For `COc1ccnc(CNC(=O)c2cc(CNC3=NCCN3)cc(-c3cc(C(F)(F)F)cnc3OC)c2)c1` [Example 46, 3-(((4,5-dihydro-1H-imidazol-2-yl)amino)methyl)-5-(2-methoxy-5-(trifluoromethyl)pyridin-3-yl)-N-((4-methoxypyridin-2-yl)methyl)benzamide], the Ki is 0.1 nM.
Still for that read-out and setting: to `Cc1cc(-c2cc(CNC3=NCCN3)cc(C(=O)NCc3cc(Cl)ccn3)c2)ccn1` [Example 22, N-((4-chloropyridin-2-yl)methyl)-3-(((4,5-dihydro-1H-imidazol-2-yl)amino)methyl)-5-(2-methylpyridin-4-yl)benzamide] belongs 0.28 nM; to `COc1ncc(C)cc1-c1cc(CNC2=NCCN2)cc(C(=O)NCc2ccc(Cl)c(Cl)c2)n1` [Example 83, N-(3,4-Dichlorobenzyl)-4-(((4,5-dihydro-1H-imidazol-2-yl)amino)methyl)-2′-methoxy-5′-methyl-[2,3′-bipyridine]-6-carboxamide], 0.31 nM; to `COc1ccc(CNC(=O)c2cc(CNC3=NCCN3)cc(-c3ccnc(C)c3)c2)cc1Cl` [Example 23, N-(3-chloro-4-methoxybenzyl)-3-(((4,5-dihydro-1H-imidazol-2-yl)amino)methyl)-5-(2-methylpyridin-4-yl)benzamide], 1.3 nM.
Still for that read-out and setting: to `COc1cc(CNC(=O)c2cc(CNC3=NCCN3)cc(-c3cnccc3C)c2)ccc1Cl` [Example 18, N-(4-Chloro-3-methoxybenzyl)-3-(((4,5-dihydro-1H-imidazol-2-yl)amino)methyl)-5-(4-methylpyridin-3-yl)benzamide] belongs 3.1 nM.
`COc1ccc(CNC(=O)c2cc(CNC3=NCCN3)cc(-c3ccnc(C)c3)c2)cc1OC` [Example 15, 3-(((4,5-dihydro-1H-imidazol-2-yl)amino)methyl)-N-(3,4-dimethoxybenzyl)-5-(2-methylpyridin-4-yl)benzamide] had a Ki of 1.7 nM. Against the preceding compound, the Ki is about 1.8-fold lower.
Compound `COc1cc(CNC(=O)c2cc(CNC3=NCCN3)cc(-c3cnccc3C)c2)cc(OC)c1` [Example 13, 3-(((4,5-dihydro-1H-imidazol-2-yl)amino)methyl)-N-(3,5-dimethoxybenzyl)-5-(4-methylpyridin-3-yl)benzamide] gave a Ki of 0.53 nM.
Still for that read-out and setting: to `Cc1ccncc1-c1cc(CNC2=NCCN2)cc(C(=O)NCc2cc(F)cc(Cl)c2)c1` [Example 24, N-(3-chloro-5-fluorobenzyl)-3-(((4,5-dihydro-1H-imidazol-2-yl)amino)methyl)-5-(4-methylpyridin-3-yl)benzamide] belongs 0.37 nM.
Compound `Cc1cc(CNC(=O)c2cc(CNC3=NCCN3)cc(-c3ccc(F)nc3C)c2)ccc1Cl` [Example 5, N-(4-chloro-3-methylbenzyl)-3-(((4,5-dihydro-1H-imidazol-2-yl)amino)methyl)-5-(6-fluoro-2-methylpyridin-3-yl)benzamide] yielded a Ki of 0.02 nM.
On the same count and under the same terms, as for `Cc1cc(-c2cc(CNC3=NCCC3)cc(C(=O)NCc3ccc(Cl)c(C)c3)c2)c(C)cc1F` [Example 66, N-(4-Chloro-3-methylbenzyl)-5-(((3,4-dihydro-2H-pyrrol-5-yl)amino)methyl)-4′-fluoro-2′,5′-dimethyl-[1,1′-biphenyl]-3-carboxamide], the figure is 0.38 nM; as for `COc1cc(CNC(=O)c2cc(CNC3=NCCN3)cc(-c3ccc(F)nc3C)n2)ccn1` [Example 79, 4-(((4,5-Dihydro-1H-imidazol-2-yl)amino)methyl)-6′-fluoro-N-((2-methoxypyridin-4-yl)methyl)-2′-methyl-[2,3′-bipyridine]-6-carboxamide], 5.74 nM; as for `COc1ccnc(CNC(=O)c2cc(CNC3=NCCN3)cc(-c3ccc(F)nc3C)c2)c1` [Example 11, 3-(((4,5-Dihydro-1H-imidazol-2-yl)amino)methyl)-5-(6-fluoro-2-methylpyridin-3-yl)-N-((4-methoxypyridin-2-yl)methyl)benzamide], 0.22 nM.
For the compound `Cc1ccnc(C(NC(=O)c2cc(CNC3=NCCC3)cc(-c3ccc(F)cc3C)n2)C2CC2)c1` (stereo not drawn) [Example 95, N-(Cyclopropyl(4-methylpyridin-2-yl)methyl)-4-(((3,4-dihydro-2H-pyrrol-5-yl)amino)methyl)-6-(4-fluoro-2-methylphenyl)picolinamide], affinity was put at a Ki of 8.6 nM.
For `Cc1ncc(CNC(=O)c2cc(CNC3=NCCN3)cc(-c3ccc(F)nc3C)n2)cn1` [Example 80, 4-(((4,5-Dihydro-1H-imidazol-2-yl)amino)methyl)-6′-fluoro-2′-methyl-N-((2-methylpyrimidin-5-yl)methyl)-[2,3′-bipyridine]-6-carboxamide], the Ki was found to be 22 nM.
Compound `COc1ccnc(CNC(=O)c2cc(CNC3=NCCN3)cc(-c3cnccc3C)c2)c1` [Example 19, 3-(((4,5-Dihydro-1H-imidazol-2-yl)amino)methyl)-N-((4-methoxypyridin-2-yl)methyl)-5-(4-methylpyridin-3-yl)benzamide] registered a Ki of 0.45 nM. Compared with the last compound, the Ki is about 49-fold lower.
Still for that read-out and setting: as for `COc1cc(CNC(=O)c2cc(CNC3=NCCC3)cc(-c3cccn3C)c2)cc(OC)c1` [Example 58, 3-(((3,4-Dihydro-2H-pyrrol-5-yl)amino)methyl)-N-(3,5-dimethoxybenzyl)-5-(1-methyl-1H-pyrrol-2-yl)benzamide], the figure is 5.8 nM.
The same measure, in the same setting: as for `Cc1cc([C@H](C)NC(=O)c2cc(CNC3=NCCC3)cc(-c3ccc(F)cc3C(F)(F)F)n2)ccc1Cl` [Example 92, (S)—N-(1-(4-chloro-3-methylphenyl)ethyl)-4-(((3,4-dihydro-2H-pyrrol-5-yl)amino)methyl)-6-(4-fluoro-2-(trifluoromethyl)phenyl)picolinamide], the figure is 1.5 nM.
On the same count and under the same terms, as for `Cc1ccc(CNC(=O)c2cc(CNC3=NCCN3)cc(-c3ccnc(C)c3)c2)cn1` [Example 26, 3-(((4,5-dihydro-1H-imidazol-2-yl)amino)methyl)-N-((6-methylpyridin-3-yl)methyl)-5-(2-methylpyridin-4-yl)benzamide], the figure is 3 nM.
On to `Cc1nc(F)ccc1-c1cc(CNC2=NCCN2)cc(C(=O)NCc2ccc(Cl)c(F)c2)n1` [Example 73, N-(4-Chloro-3-fluorobenzyl)-4-(((4,5-dihydro-1H-imidazol-2-yl)amino)methyl)-6′-fluoro-2′-methyl-[2,3′-bipyridine]-6-carboxamide], for which the affinity corresponds to a Ki of 0.43 nM.
Same read-out and setting: as for `Cc1cnccc1-c1cc(CNC2=NCCN2)cc(C(=O)NCc2ccc(Cl)c(Cl)c2)n1` [Example 84, N-(3,4-Dichlorobenzyl)-4-(((4,5-dihydro-1H-imidazol-2-yl)amino)methyl)-3′-methyl-[2,4′-bipyridine]-6-carboxamide], the figure is 0.15 nM.
On the same count and under the same terms, as for `O=C(NCc1ccc(Cl)c(Cl)c1)c1cc(Cn2ccnc2)cc(C(F)(F)F)c1` [Example 141, 3-((1H-Imidazol-1-yl)methyl)-N-(3,4-dichlorobenzyl)-5-(trifluoromethyl)benzamide], the figure is 10 nM.
On the same count and under the same terms, as for `COc1cc(CNC(=O)c2cc(CNC3=NCCN3)cc(-c3cnc(OC)c(Cl)c3)c2)cc(OC)c1` [Example 34, 3-(5-Chloro-6-methoxypyridin-3-yl)-5-(((4,5-dihydro-1H-imidazol-2-yl)amino)methyl)-N-(3,5-dimethoxybenzyl)benzamide], the figure is 0.37 nM.
On to `COc1cc(OC)cc(C(C)NC(=O)c2cc(Cn3ccnc3C)cc(-c3ccc(F)cc3OC)n2)c1` (stereo not drawn) [Example 158, N-(1-(3,5-dimethoxyphenyl)ethyl)-6-(4-fluoro-2-methoxyphenyl)-4-((2-methyl-1H-imidazol-1-yl)methyl)picolinamide], for which the Ki was found to be 8 nM.
